From PubChem BioAssay AID248 (DTP/NCI, 2004)
Values joined by “and” are separate entries in the source; they are usually repeats but may differ in a detail not shown here. Equal values may be shown once. Toxic doses and inconclusive results are not listed.

Tested on: L1210 leukemia ip in BDF1 mice, survival T/C
Experiment: NCI In Vivo Anticancer Drug Screen. Data for tumor model L1210 Leukemia (intraperitoneal) in B6D2F1 (BDF1) mice
Details: endpoint: mean survival time, higher = longer survival
Summary of the method: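 Tumor was transplanted into mice, which were then dosed with test compound or vehicle alone. Survival was recorded for each group, and the treated figure was expressed relative to the control figure.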

[1] = dose: 62.0 mg/kg/injection, schedule: Q01DX Z (ip), vehicle: saline
[2] = dose: 125.0 mg/kg/injection, schedule: Q01DX Z (ip), vehicle: saline
[3] = dose: 100.0 mg/kg/injection, schedule: Q04DX003 (ip), vehicle: saline with Tween-80
[4] = dose: 200.0 mg/kg/injection, schedule: Q04DX003 (ip), vehicle: saline with Tween-80
[5] = dose: 400.0 mg/kg/injection, schedule: Q04DX003 (ip), vehicle: saline with Tween-80
[6] = dose: 100.0 mg/kg/injection, schedule: Q04DX002 (ip), vehicle: Klucel (hydroxypropylcellulose) (HPC)
[7] = dose: 200.0 mg/kg/injection, schedule: Q04DX002 (ip), vehicle: Klucel (hydroxypropylcellulose) (HPC)
[8] = dose: 100.0 mg/kg/injection, schedule: Q01DX009 (ip), vehicle: Klucel (hydroxypropylcellulose) (HPC)
[9] = dose: 200.0 mg/kg/injection, schedule: Q01DX009 (ip), vehicle: Klucel (hydroxypropylcellulose) (HPC)
[10] = dose: 100.0 mg/kg/injection, schedule: Q04DX003 (ip), vehicle: saline
[11] = dose: 100.0 mg/kg/injection, schedule: Q01DX001 (ip), vehicle: carboxymethylcellulose (CMC)
[12] = dose: 200.0 mg/kg/injection, schedule: Q01DX001 (ip), vehicle: carboxymethylcellulose (CMC)
[13] = dose: 400.0 mg/kg/injection, schedule: Q01DX001 (ip), vehicle: carboxymethylcellulose (CMC)
[14] = dose: 400.0 mg/kg/injection, schedule: Q04DX002 (ip), vehicle: Klucel (hydroxypropylcellulose) (HPC)
[15] = dose: 400.0 mg/kg/injection, schedule: Q01DX009 (ip), vehicle: Klucel (hydroxypropylcellulose) (HPC)

Compound: Cc1c(NC(=O)Nc2ccc(C3=NCCN3)cc2)cccc1NC(=O)Nc1ccc(C2=NCCN2)cc1
- T/C (dose: 0.62 mg/kg/injection, schedule: Q01DX Z (ip), vehicle: carboxymethylcellulose (CMC)): 92 % of control
- T/C (dose: 1.25 mg/kg/injection, schedule: Q01DX Z (ip), vehicle: carboxymethylcellulose (CMC)): 98 % of control
- T/C (dose: 2.5 mg/kg/injection, schedule: Q01DX Z (ip), vehicle: carboxymethylcellulose (CMC)): 102 % of control
- T/C (dose: 8.5 mg/kg/injection, schedule: Q01DX Z (oral), vehicle: carboxymethylcellulose (CMC)): 109 % of control
- T/C (dose: 9.0 mg/kg/injection, schedule: Q01DX Z (ip), vehicle: water): 205 % of control
- T/C (dose: 13.5 mg/kg/injection, schedule: Q01DX Z (oral), vehicle: carboxymethylcellulose (CMC)): 121 % of control
- T/C (dose: 18.0 mg/kg/injection, schedule: Q01DX Z (ip), vehicle: water): 160 % of control
- T/C (dose: 20.0 mg/kg/injection, schedule: Q01DX Z (oral), vehicle: carboxymethylcellulose (CMC)): 111 % of control
- T/C (dose: 30.0 mg/kg/injection, schedule: Q01DX Z (oral), vehicle: carboxymethylcellulose (CMC)): 109 % of control
- T/C (dose: 36.0 mg/kg/injection, schedule: Q01DX Z (ip), vehicle: water): 111 % of control
- T/C (dose: 45.0 mg/kg/injection, schedule: Q01DX Z (oral), vehicle: carboxymethylcellulose (CMC)): 114 % of control
- T/C [1]: 124 % of control
- T/C [2]: 96 % of control

Compound: CC(C(=O)c1ccccc1)C(O)(C(F)(F)F)C(F)(F)F (stereo not given)
- T/C [3]: 97 % of control
- T/C [4]: 97 % of control
- T/C [5]: 99 % of control

Compound: O=C1CN(/N=C/c2ccc(-c3ccc(Cl)c(Cl)c3)o2)C(=O)N1
- T/C (dose: 50.0 mg/kg/injection, schedule: Q04DX002 (ip), vehicle: Klucel (hydroxypropylcellulose) (HPC)): 100 % of control
- T/C [6]: 110 % of control
- T/C [7]: 95 % of control

Compound: CCNc1nc(C)c2nc(C(=O)OCC)c(=O)[nH]c2n1
- T/C (dose: 50.0 mg/kg/injection, schedule: Q01DX009 (ip), vehicle: Klucel (hydroxypropylcellulose) (HPC)): 95 % of control
- T/C [8]: 95 % of control
- T/C [9]: 98 % of control

Compound: O=NN(CCF)C(=O)NC1CCSCC1
- T/C (dose: 24.0 mg/kg/injection, schedule: Q01DX001 (ip), vehicle: other): 334 % of control
- T/C (dose: 36.0 mg/kg/injection, schedule: Q01DX001 (ip), vehicle: other): 344 % of control
- T/C (dose: 54.0 mg/kg/injection, schedule: Q01DX001 (ip), vehicle: other): 344 % of control

Compound: O=C1CNC(=O)N1
- T/C (dose: 50.0 mg/kg/injection, schedule: Q01DX009 (ip), vehicle: saline): 105 % of control
- T/C (dose: 100.0 mg/kg/injection, schedule: Q01DX009 (ip), vehicle: saline): 107 % of control
- T/C [10]: 94 % of control
- T/C (dose: 200.0 mg/kg/injection, schedule: Q01DX009 (ip), vehicle: saline): 96 % of control
- T/C (dose: 200.0 mg/kg/injection, schedule: Q04DX003 (ip), vehicle: saline): 100 % of control
- T/C (dose: 400.0 mg/kg/injection, schedule: Q01DX009 (ip), vehicle: saline): 96 % of control
- T/C (dose: 400.0 mg/kg/injection, schedule: Q04DX003 (ip), vehicle: saline): 98 % of control

Compound: CCOC(=O)NS(=O)(=O)Nc1ccccc1
- T/C [11]: 100 % of control
- T/C [12]: 109 % of control
- T/C [13]: 95 % of control

Compound: CCCCCc1cc[n+](CC(=O)c2ccccc2)cc1
- T/C (dose: 25.0 mg/kg/injection, schedule: Q04DX003 (ip), vehicle: saline): 100 % of control
- T/C (dose: 100.0 mg/kg/injection, schedule: Q01DX001 (ip), vehicle: saline): 93 % of control
- T/C [10]: 87 % of control

Compound: C=C(CCC(=O)OC)C1=C(C)CC2OC(=O)C(=C)C2C1 (stereo not given)
- T/C (dose: 50.0 mg/kg/injection, schedule: Q04DX002 (ip), vehicle: saline): 120 % of control
- T/C (dose: 100.0 mg/kg/injection, schedule: Q04DX002 (ip), vehicle: saline): 113 % of control
- T/C (dose: 200.0 mg/kg/injection, schedule: Q04DX002 (ip), vehicle: saline): 100 % of control

Compound: Cc1ccc(OC(C)C(=O)O)c(C)c1 (stereo not given)
- T/C [6]: 104 % of control
- T/C [7]: 98 % of control
- T/C [14]: 95 % of control

Compound: Cc1noc(C)c1CC1(Cc2c(C)noc2C)C(=O)CCC2(C)CCCC=C21 (stereo not given)
- T/C [8]: 92 % of control
- T/C (dose: 100.0 mg/kg/injection, schedule: Q04DX003 (ip), vehicle: Klucel (hydroxypropylcellulose) (HPC)): 95 % of control
- T/C [9]: 98 % of control
- T/C (dose: 200.0 mg/kg/injection, schedule: Q04DX003 (ip), vehicle: Klucel (hydroxypropylcellulose) (HPC)): 93 % of control
- T/C [15]: 97 % of control
- T/C (dose: 400.0 mg/kg/injection, schedule: Q04DX003 (ip), vehicle: Klucel (hydroxypropylcellulose) (HPC)): 96 % of control

Compound: CCCCO[Si](C)(C)CCl
- T/C (dose: 50.0 mg/kg/injection, schedule: Q01DX001 (ip), vehicle: carboxymethylcellulose (CMC)): 101 % of control
- T/C [11]: 101 % of control
- T/C [12]: 106 % of control
- T/C [13]: 97 % of control

Compound: O=C(O)C(F)(F)C(F)(F)C(F)(F)F.[Ag]
- T/C (dose: 10.0 mg/kg/injection, schedule: Q01DX001 (ip), vehicle: acetone): 101 % of control
- T/C (dose: 20.0 mg/kg/injection, schedule: Q01DX001 (ip), vehicle: acetone): 96 % of control
- T/C (dose: 40.0 mg/kg/injection, schedule: Q01DX001 (ip), vehicle: acetone): 109 % of control

Compound: CC(=O)NC1CCCC2CCCCC21 (stereo not given)
- T/C (dose: 100.0 mg/kg/injection, schedule: Q01DX009 (ip), vehicle: saline with Tween-80): 94 % of control and 99 % of control
- T/C [3]: 93 % of control
- T/C (dose: 200.0 mg/kg/injection, schedule: Q01DX009 (ip), vehicle: saline with Tween-80): 109 % of control and 100 % of control
- T/C [4]: 94 % of control
- T/C (dose: 400.0 mg/kg/injection, schedule: Q01DX009 (ip), vehicle: saline with Tween-80): 103 % of control
- T/C [5]: 94 % of control

Compound: CC/C(=C(\c1ccccc1)c1ccc(OCCN(C)C)cc1)c1ccccc1
- T/C [6]: 95 % of control
- T/C [7]: 92 % of control
- T/C [14]: 100 % of control

Compound: CCCCCCC(C)CC(CCCCCC)NCCOC(=O)c1ccc([N+](=O)[O-])cc1 (stereo not given)
- T/C (dose: 75.0 mg/kg/injection, schedule: Q01DX001 (ip), vehicle: saline): 105 % of control
- T/C (dose: 150.0 mg/kg/injection, schedule: Q01DX001 (ip), vehicle: saline): 100 % of control
- T/C (dose: 300.0 mg/kg/injection, schedule: Q01DX001 (ip), vehicle: saline): 121 % of control

Compound: CN(C)[C@@H]1C(=O)C(C(=O)NCNC2(C(=O)O)CCCC2)=C(O)[C@@]2(O)C(=O)C3=C(O)c4c(O)cccc4[C@@](C)(O)[C@H]3C[C@@H]12
- T/C [1]: 95 % of control
- T/C [2]: 98 % of control
- T/C (dose: 250.0 mg/kg/injection, schedule: Q01DX Z (ip), vehicle: saline): 114 % of control

Compound: O=[N+]([O-])c1ccc(/C=N/O)o1
- T/C (dose: 10.0 mg/kg/injection, schedule: Q04DX002 (ip), vehicle: Klucel (hydroxypropylcellulose) (HPC)): 102 % of control
- T/C (dose: 20.0 mg/kg/injection, schedule: Q04DX002 (ip), vehicle: Klucel (hydroxypropylcellulose) (HPC)): 117 % of control
- T/C (dose: 40.0 mg/kg/injection, schedule: Q04DX002 (ip), vehicle: Klucel (hydroxypropylcellulose) (HPC)): 104 % of control
- T/C (dose: 50.0 mg/kg/injection, schedule: Q01DX001 (ip), vehicle: saline): 111 % of control

Compound: C=CC12CN(C)C3C4COC(CC41)C1(C(=O)Nc4ccccc41)C32 (stereo not given)
- T/C (dose: 75.0 mg/kg/injection, schedule: Q01DX001 (ip), vehicle: other): 102 % of control

Compound: Cc1c(C)c(N)c(C)c(C)c1N
- T/C (dose: 6.25 mg/kg/injection, schedule: Q01DX009 (ip), vehicle: Klucel (hydroxypropylcellulose) (HPC)): 94 % of control
- T/C (dose: 12.5 mg/kg/injection, schedule: Q01DX009 (ip), vehicle: Klucel (hydroxypropylcellulose) (HPC)): 94 % of control
- T/C (dose: 12.5 mg/kg/injection, schedule: Q04DX003 (ip), vehicle: Klucel (hydroxypropylcellulose) (HPC)): 101 % of control

Compound: O=C1C2CCCC3CCCC(C(=O)N1NC1CCCCC1)C32 (stereo not given)
- T/C (dose: 100.0 mg/kg/injection, schedule: Q04DX002 (ip), vehicle: saline with Tween-80): 93 % of control
- T/C (dose: 200.0 mg/kg/injection, schedule: Q04DX002 (ip), vehicle: saline with Tween-80): 86 % of control

Compound: O=C(NCCCl)NC1CCCCCC1
- T/C [8]: 101 % of control
- T/C [9]: 108 % of control
- T/C [15]: 100 % of control
